Source: patent US20260042764A1, “COMPOSITIONS AND METHODS FOR INHIBITION OF KRAS” (TheRas, Inc., priority 2022, published 2026)

Assays:
[1] = molecular target: T1, Avi-KRAS G12V (1-169) GppNHp/RAF1 RBD-3xFLAG (52-151) (Homo sapiens, UniProt P01116, G12V); test: Raf1-KRAS G12V-GppNHP disruption HTRF assay (Biological Example 1); type: binding
T1 construct: Avi-KRAS G12V (1-169)
Outline: (§1)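 HTRF PPI disruption; buffer 50 mM Tris pH 7.5, 100 mM NaCl, 5 mM MgCl2, 0.1% BSA, 0.01% Tween, 10% DMSO. Protein mix 1 h RT shaking, reagent mix 1 h RT shaking. Data as % activity vs DMSO (100%).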

[2] = molecular target: T2, Avi-KRAS G12R (1-169) GppNHp/RAF1 RBD-3xFLAG (52-151) (Homo sapiens, UniProt P01116, G12R); test: Raf1-KRAS G12R-GppNHP disruption HTRF assay (Biological Example 1); type: binding
T2 construct: Avi-KRAS G12R (1-169)
T2 sequence (P01116 1-169 isoform P01116-2 G12R): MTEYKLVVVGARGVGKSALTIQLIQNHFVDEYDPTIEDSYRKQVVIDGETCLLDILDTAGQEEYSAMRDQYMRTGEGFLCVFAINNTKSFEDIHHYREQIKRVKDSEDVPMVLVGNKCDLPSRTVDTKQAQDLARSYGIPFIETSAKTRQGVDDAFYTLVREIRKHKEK
Outline: as §1

[3] = molecular target: T3, Avi-KRAS WT (1-169) GppNHp/RAF1 RBD-3xFLAG (52-151) (Homo sapiens, UniProt P01116); test: Raf1-KRAS WT-GppNHP disruption HTRF assay (Biological Example 1); type: binding
T3 construct: Avi-KRAS WT (1-169)
T3 sequence (P01116 1-169 isoform P01116-2): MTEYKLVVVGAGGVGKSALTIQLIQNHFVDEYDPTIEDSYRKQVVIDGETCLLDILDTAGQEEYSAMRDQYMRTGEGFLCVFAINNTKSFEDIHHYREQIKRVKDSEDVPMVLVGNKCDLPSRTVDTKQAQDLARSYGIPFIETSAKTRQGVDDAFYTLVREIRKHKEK
Outline: as §1

[4] = system: GP2d cells (KRAS G12D); test: Cell-based pERK HTRF assay in GP2d cell (Biological Example 2); details: GP2d, GP2d (KRAS G12D) cells, pERK HTRF
Outline: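 HTRF read-out of pERK (excitation 320 nm, emission 615 nm) after lysates sat 4–24 h at room temperature with Eu cryptate and d2 antibodies.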

[5] = system: SW620 cells (KRAS G12V); test: Cell-based pERK HTRF assay in SW620 cell (Biological Example 4); details: Homo sapiens, SW-620, SW620 (KRAS G12V) cells, pERK HTRF
Outline: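 In SW620 cells grown in RPMI with 10% FBS, a 4 h compound treatment (0.25% DMSO, 9-point curve from 1 μM) preceded lysis. Phospho-ERK levels were then read by time-resolved FRET at 615 nm emission.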

[6] = molecular target: T4, Avi-KRAS G12D (1-169) GppNHp/RAF1 RBD-3xFLAG (52-151) (Homo sapiens, UniProt P01116, G12D); test: Raf1-KRAS G12D-GppNHP disruption HTRF assay (Biological Example 1); type: binding
T4 construct: Avi-KRAS G12D (1-169)
T4 sequence (P01116 1-169 isoform P01116-2 G12D): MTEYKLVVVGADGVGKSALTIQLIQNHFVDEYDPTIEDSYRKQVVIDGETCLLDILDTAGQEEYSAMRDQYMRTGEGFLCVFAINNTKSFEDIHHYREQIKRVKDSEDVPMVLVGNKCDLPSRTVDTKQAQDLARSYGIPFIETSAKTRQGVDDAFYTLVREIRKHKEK
Outline: as §1

[7] = KRAS G12V, GppNHp-loaded, Table 11
[8] = KRAS G12R, GppNHp-loaded, Table 11
[9] = KRAS WT, GppNHp-loaded, Table 11
[10] = KRAS G12D, GppNHp-loaded, Table 11
[11] = KRAS G12V, GppNHp-loaded, class symbols
[12] = KRAS G12R, GppNHp-loaded, class symbols
[13] = KRAS WT, GppNHp-loaded, class symbols
[14] = KRAS G12D, GppNHp-loaded, class symbols

T1 sequence (P01116 1-169 isoform P01116-2 G12V): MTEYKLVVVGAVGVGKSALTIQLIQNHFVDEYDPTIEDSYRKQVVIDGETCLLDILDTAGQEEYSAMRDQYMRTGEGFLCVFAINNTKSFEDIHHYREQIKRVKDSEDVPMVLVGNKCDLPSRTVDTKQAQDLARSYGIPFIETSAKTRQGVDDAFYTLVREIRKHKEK

| SMILES | IC50 ([1]; KRAS G12V-GppNHp/RAF1 RBD HTRF) | IC50 ([2]; KRAS G12R-GppNHp/RAF1 RBD HTRF) | IC50 ([3]; KRAS WT-GppNHp/RAF1 RBD HTRF) | IC50 [4] | IC50 [5] | IC50 ([6]; KRAS G12D-GppNHp/RAF1 RBD HTRF) | IC50 [1, 7] | IC50 [2, 8] | IC50 [3, 9] | IC50 [6, 10] | IC50 [1, 11] | IC50 [2, 12] | IC50 [3, 13] | IC50 ([4]; class symbols) | IC50 ([5]; class symbols) | IC50 [6, 14] |
| --- | --- | --- | --- | --- | --- | --- | --- | --- | --- | --- | --- | --- | --- | --- | --- | --- |
| CCN(c1nc(OC[C@@]23CCCN2C[C@H](F)C3)nc2c(F)c(-c3ccc(F)c4sc(N)c(C#N)c34)c(C(F)(F)F)cc12)[C@H]1CCN(C(=O)CCC#N)C1 (atropisomer, axis not shown) [Compound 555] | < 100 nM | < 100 nM | < 100 nM | < 100 nM | < 100 nM | < 100 nM |  |  |  |  |  |  |  |  |  |  |
| CC(=O)N1C[C@@H]2CCN(c3nc(OC[C@@]45CCCN4C[C@H](F)C5)nc4c(F)c(-c5ccc(F)c6sc(N)c(C#N)c56)c(C(F)(F)F)cc34)[C@@H]2C1 [Compound 211] |  |  |  | < 100 nM | 100 to 1000 nM |  | 1000 to 10000 nM | 1000 to 10000 nM | 100 to 1000 nM | 100 to 1000 nM |  |  |  |  |  |  |
| CC(=O)N1CCN(c2nc(OC[C@@]34CCCN3C[C@H](F)C4)nc3c(F)c(-c4ccc(F)c5sc(N)c(C#N)c45)c(C(F)(F)F)cc23)[C@@H](C)C1 [Compound 230] |  |  |  | < 100 nM | < 100 nM |  | 1000 to 10000 nM | 1000 to 10000 nM | 100 to 1000 nM | 100 to 1000 nM |  |  |  |  |  |  |
| CCN(c1nc(OC[C@@]23CCCN2C[C@H](F)C3)nc2c(F)c(-c3ccc(F)c4sc(N)c(C#N)c34)c(C(F)(F)F)cc12)[C@H]1CCN(C(=O)c2ccnn2C)C1 (atropisomer, axis not shown) [Compound 723] |  |  |  |  |  |  |  |  |  |  | < 100 nM | < 100 nM | < 100 nM | < 100 nM | < 100 nM | < 100 nM |
| CN(C)C(=O)N1CC[C@H](N(C)c2nc(OC[C@@]34CCCN3C[C@H](F)C4)nc3c(F)c(-c4ccc(F)c5sc(N)c(C#N)c45)c(C(F)(F)F)cc23)C1 (atropisomer, axis not shown) [Compound 755] |  |  |  |  |  |  |  |  |  |  | 100 to 1000 nM | < 100 nM | 100 to 1000 nM | < 100 nM | < 100 nM | < 100 nM |
| N#Cc1c(N)sc2c(F)ccc(-c3c(C(F)(F)F)cc4c(N5CCc6cn[nH]c6C5)nc(OC[C@@]56CCCN5C[C@H](F)C6)nc4c3F)c12 [Compound 354] | > 10000 nM | 1000 to 10000 nM | 1000 to 10000 nM | 100 to 1000 nM | < 100 nM | 1000 to 10000 nM |  |  |  |  |  |  |  |  |  |  |
| N#Cc1c(N)sc2c(F)ccc(-c3c(C(F)(F)F)cc4c(N5CCn6cnnc6C5)nc(OC[C@@]56CCCN5C[C@H](F)C6)nc4c3F)c12 [Compound 294] | 100 to 1000 nM | 100 to 1000 nM | 100 to 1000 nM | 100 to 1000 nM | 100 to 1000 nM | 100 to 1000 nM |  |  |  |  |  |  |  |  |  |  |
| N#Cc1c(N)sc2c(F)ccc(-c3c(C(F)(F)F)cc4c(N5CCNC(=O)CC5)nc(OC[C@@]56CCCN5C[C@H](F)C6)nc4c3F)c12 [Compound 251] |  |  |  | < 100 nM | 100 to 1000 nM |  | 100 to 1000 nM | 100 to 1000 nM | 100 to 1000 nM | 100 to 1000 nM |  |  |  |  |  |  |
| [2H]C1([2H])CN2C[C@H](F)C[C@]2(COc2nc(N3C[C@H]4C[C@@H]3CO4)c3cc(C(F)(F)F)c(-c4ccc(F)c5sc(N)c(C#N)c45)c(F)c3n2)C1 [Compound 567] |  |  |  |  |  |  |  |  |  |  | 100 to 1000 nM | 100 to 1000 nM | 100 to 1000 nM | < 100 nM | < 100 nM | 100 to 1000 nM |
| CCN1C[C@@H](N(CC)c2nc(OC[C@@]34CCCN3C[C@H](F)C4)nc3c(F)c(-c4ccc(F)c5sc(N)c(C#N)c45)c(C(F)(F)F)cc23)CC1=O (atropisomer, axis not shown) [Compound 634] |  |  |  |  |  |  |  |  |  |  | < 100 nM | < 100 nM | < 100 nM | < 100 nM | < 100 nM | < 100 nM |
| CCN(c1nc(OC[C@@]23CCCN2C[C@H](F)C3)nc2c(F)c(-c3ccc(F)c4sc(N)c(C#N)c34)c(C(F)(F)F)cc12)[C@H]1CCN(C(=O)N2CC3(COC3)C2)C1 (atropisomer, axis not shown) [Compound 637] |  |  |  |  |  |  |  |  |  |  | < 100 nM | < 100 nM | < 100 nM | < 100 nM | < 100 nM | < 100 nM |
